Results published in patent US20170275270A1, “BENZYL SUBSTITUTED INDAZOLES” (Bayer Pharma Aktiengesellschaft, priority 2014, published 2017).

Legend:
[1] = target: T1, catalytic domain of human Bub1 (amino acids 704-1085) (Homo sapiens, UniProt O43683); assay: Bub1 kinase assay (TR-FRET); format: biochemical; details: Biological Assay 1: Bub1 kinase assay median IC50, 10 μM ATP
T1 construct: catalytic domain of human Bub1 (amino acids 704-1085); His6 (N); made in house; host or cells: Hi5 insect cells
How it was run: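 Compounds from 2 mM DMSO stocks, serially diluted 1:3.4, incubated with enzyme at 22° C for 60 min. Stopped with EDTA, then 1 h with streptavidin-XL665, anti-phosphoserine antibody and Eu-labelled anti-mouse IgG. Phosphorylated biotin-peptide read by TR-FRET; IC50 by 4-parameter logistic fit.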

[2] = test system: HeLa human cervical tumor cells; assay: Proliferation assay (HeLa+Paclitaxel); details: read-out: Biological Assay 3: HeLa + Paclitaxel IC50, 3 nM paclitaxel, crystal violet;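 note: compounds at 0.001-10 µM added 4 h after paclitaxel, 92 h exposure, absorbance normalized to zero-point plate (0%) and untreated cells (100%), IC50 from 4-parameter fit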
Bub1 = Bub1 (Homo sapiens, UniProt O43683); assay: Formation-Assay: phosphorylation status of histone 2A by inhibition of kinase activity of Bub1; format: cell-based; details: Biological Assay 4.1: H2A Formation IC50, co-treatment with Nocodazole 1 μg/ml, 16 h
How it was run: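 Cells co-treated 16 h with Nocodazole (1 μg/ml) and compound (3 nM–10 μM), then fixed and immunostained for phospho-H2A, read by infrared imaging (800 nm) normalised to cell stain (700 nm). Nocodazole-only set as 100%, untreated cells as 0%.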

HeLa = assay: Proliferation assay (HeLa cell line); details: Homo sapiens, 96 h, read-out: Biological Assay 2: Proliferation assay (HeLa cell line) median IC50;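 note: crystal violet staining of cell number, scaled between a plate stained before dosing (0%) and cells left untreated (100%), compounds tested at 0.001-10 µM, IC50 via 4-parameter fit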

T1 sequence (O43683 704-1085): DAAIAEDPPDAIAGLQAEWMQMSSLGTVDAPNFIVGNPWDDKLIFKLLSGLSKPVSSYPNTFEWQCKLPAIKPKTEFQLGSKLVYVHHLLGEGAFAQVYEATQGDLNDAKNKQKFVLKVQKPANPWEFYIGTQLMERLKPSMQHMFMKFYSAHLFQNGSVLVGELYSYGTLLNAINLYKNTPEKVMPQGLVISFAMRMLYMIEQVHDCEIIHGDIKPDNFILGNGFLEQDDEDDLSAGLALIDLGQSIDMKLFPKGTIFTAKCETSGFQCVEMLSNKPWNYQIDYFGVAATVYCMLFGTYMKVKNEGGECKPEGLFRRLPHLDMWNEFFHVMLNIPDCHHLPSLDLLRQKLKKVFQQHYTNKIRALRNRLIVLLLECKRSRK
Sequence of Bub1 (O43683 whole entry): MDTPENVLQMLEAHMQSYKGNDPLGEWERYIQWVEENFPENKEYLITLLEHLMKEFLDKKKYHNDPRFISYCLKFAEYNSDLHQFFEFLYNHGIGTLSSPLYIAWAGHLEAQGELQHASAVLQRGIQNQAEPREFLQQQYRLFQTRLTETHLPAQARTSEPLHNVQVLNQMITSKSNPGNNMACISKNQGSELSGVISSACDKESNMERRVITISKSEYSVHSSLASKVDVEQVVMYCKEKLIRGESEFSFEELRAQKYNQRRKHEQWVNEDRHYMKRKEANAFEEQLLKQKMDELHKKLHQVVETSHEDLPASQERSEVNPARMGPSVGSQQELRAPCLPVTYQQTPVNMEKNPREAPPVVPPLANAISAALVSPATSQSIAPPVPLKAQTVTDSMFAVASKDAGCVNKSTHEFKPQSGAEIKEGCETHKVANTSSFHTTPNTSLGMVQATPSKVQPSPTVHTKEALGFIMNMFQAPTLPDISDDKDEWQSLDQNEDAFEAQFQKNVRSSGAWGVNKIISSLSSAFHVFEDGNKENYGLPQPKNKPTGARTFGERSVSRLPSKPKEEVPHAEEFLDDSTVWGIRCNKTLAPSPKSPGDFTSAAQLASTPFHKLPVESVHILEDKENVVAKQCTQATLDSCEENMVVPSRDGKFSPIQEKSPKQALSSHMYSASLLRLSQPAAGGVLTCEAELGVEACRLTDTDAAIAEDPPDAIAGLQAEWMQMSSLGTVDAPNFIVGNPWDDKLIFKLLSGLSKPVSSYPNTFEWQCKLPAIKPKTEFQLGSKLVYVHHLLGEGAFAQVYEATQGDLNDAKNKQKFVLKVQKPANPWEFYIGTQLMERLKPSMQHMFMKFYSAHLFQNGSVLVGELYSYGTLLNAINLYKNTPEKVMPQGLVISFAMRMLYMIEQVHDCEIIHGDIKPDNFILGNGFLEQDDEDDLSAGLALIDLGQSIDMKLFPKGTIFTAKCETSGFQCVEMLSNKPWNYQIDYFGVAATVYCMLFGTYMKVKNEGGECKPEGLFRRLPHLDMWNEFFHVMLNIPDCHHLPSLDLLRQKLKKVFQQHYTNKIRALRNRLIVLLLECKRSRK

| Compound | IC50 [1] | IC50 [2] | IC50 (Bub1) | IC50 (HeLa) |
| --- | --- | --- | --- | --- |
| CCOc1cc(F)c(Cn2nc(-c3ncc(C4CCN(CCC(F)(F)F)CC4)c(Nc4ccncc4OC)n3)c3ccccc32)c(F)c1 [Example 2-22-1, 2-[1-(4-ethoxy-2,6-difluorobenzyl)-1H-indazol-3-yl]-N-(3-methoxypyridin-4-yl)-5-[1-(3,3,3-trifluoropropyl)piperidin-4-yl]pyrimidin-4-amine] | 35 nM | 140 nM | 72 nM | 3600 nM |
| CCOc1cc(F)c(Cn2nc(-c3ncc(OCCO)c(Nc4ccncc4)n3)c3ccccc32)c(F)c1 [Example 3-1-1, 2-({2-[1-(4-ethoxy-2,6-difluorobenzyl)-1H-indazol-3-yl]-4-(pyridin-4-ylamino)pyrimidin-5-yl}oxy)ethanol, reference compound] | 11 nM | 1400 nM | 1100 nM | 1500 nM |
| CCOc1cc(F)c(Cn2nc(-c3ncc(OCCS(C)(=O)=O)c(Nc4ccncc4)n3)c3ccccc32)c(F)c1 [Example 3-3-1, 2-[1-(4-ethoxy-2,6-difluorobenzyl)-1H-indazol-3-yl]-5-[2-(methylsulfonyl)ethoxy]-N-(pyridin-4-yl)pyrimidin-4-amine, reference compound] | 5.9 nM | 1100 nM | 500 nM | 4100 nM |
